In patent US10342796B2, “Acrylanilide derivative, preparation method, and applications thereof in pharmacy” (Ancureall Pharmaceutical (Shanghai) Co., Ltd., priority 2015, dated 2019):

Legend:
Assay in all cases: Growth inhibition GI50 in vitro (CCK8/MTT, 72 h)
Format in all cases: cell-based, human
[1] = system: H1975 (EGFR L858R/T790M); details: Homo sapiens, NCI-H1975; Table 13, 72 h; read-out: Range of GI50 H1975 (EGFR L858R/T790M)
Procedure: (§1) PC-9ER is an acquired Erlotinib resistance cell line of PC-9 cells developed by the investor. […] The four cell lines above were cultured with 1×RPMI1640 complete medium (supplement with 10% FBS). Human colon cancer cell line SW48 (EGFR G719S positive, ATCC). was cultured with L15 complete medium (10% FB S).
(§2) The suspension cells were collected by centrifugation. The supernatant was discard and the cell pellet was resuspended and counted. Different cell concentrations (5˜10×10^4 cells/mL) were prepared according to the growth cycle of each cell line and then seeded on a 96-well plate (Corning), 100 μL/well. The cells were incubated over night at 37° C., 5% CO2. The compounds were added to the cells on the second day with 2 wells in parallel. The final concentration of organic solvent shall not exceed 1%. The cells were continually incubated for 72 h, and then subjected to MTT assay.
(§3) The present compounds and the reference compounds were dissolved with DMSO (Sigma), respectively. […] The storage concentration of compounds was 10 mM and kept at −20° C. They were diluted by 2 times or 10 times with serial dilution before using.
(§4) Dojindo CCK8 reagent kit was used as MTT assay. […] FC meter was used as microplate reader.
(§5) Adherent cell culture medium was discard and immediately replaced with fresh prepared medium which contains 10% CCK8 reagent (100 μL/well). For the suspension cells, CCK8 was directly added to 10% of the final concentration. The cells were continually incubated for 1˜4 h. When the color of control wells turned to dark yellow, the absorption value was measured at OD450 nm. The cell growth rate was calculated according to the following formula: cell growth rate (%)=100*(T−T0)/(C−T0), T=optical density of drug treatment cell well—optical density of blank control well; T0=optical density of cell well before drug treatment—optical density of blank control well; C=optical density of cell well of solvent control group—optical density of blank control well. […] The experiment was independently repeated 1˜3 times, and subject to biological statistical analysis.

[2] = system: PC-9 (EGFR dE746-A750); details: Homo sapiens; Table 13, 72 h; read-out: Range of GI50 PC-9 (EGFR dE746-A750)
Procedure: as §1, §2, §3, §4, §5

[3] = system: N87 (HER2 Amp); details: Homo sapiens; Table 13, 72 h; read-out: Range of GI50 N87 (HER2 Amp)
[4] = system: A549 (EGFR WT); details: Homo sapiens, A549; Table 13, 72 h; read-out: Range of GI50 A549 (EGFR WT)
Source text: EGFR wild type cell lines: human epidermal cancer cell line A431 (EGFR WT, amplification and high expression, from Shanghai Cell Bank of Chinese Academy of Sciences and ATCC), NSCLC cell lines NCI-H460 (EGFR WT, Kras G61H and PI3KCA E545K mutants, ATCC) and NCI-H1299 (EGFR WT, ATCC), melanoma cell line A375 (EGFR WT and BRAF V600E mutant, from Shanghai Cell Bank of Chinese Academy of Sciences, ATCC), human lung cancer cell line NCI-H292 (EGFR WT, from human lung mucoepidermoid carcinoma/lymphatic metastasis, purchased from Shanghai Cell Bank of Chinese Academy of Sciences) were cultured with 1×RPMI1640 complete medium which was supplement with 10% FBS. NSCLC cell line A549 (EGFR WT and Kras G12S mutant, from Shanghai Cell Bank of Chinese Academy of Sciences) was cultured with 1×Ham'S F12K complete medium which was supplement with 10% FBS, 1% double-antibiotics and 2 mM glutamine.
as §2, §3, §4, §5

GI50 [1] | GI50 [2] | GI50 [4] | SMILES | GI50 [3]
10 to 100 nM | 10 to 100 nM | > 1000 nM | C=CC(=O)Nc1cc(Nc2cc(Nc3cc(F)c(OCCOC)c(Cl)c3)ncn2)c(OC)cc1N(C)CCN(C)C [Compound 237, N-(5-(6-(3-chloro-5-fluoro-4-(2-methoxyl-ethoxyl)-phenylamino)-pyrimidin-4-yl-amino)-2-((2-dimethylamino-ethyl)-methyl-amino)-4-methoxyl-phenyl)-acrylamide] | 10 to 100 nM
100 to 1000 nM | 100 to 1000 nM | > 1000 nM | C=CC(=O)Nc1cc(Nc2cc(Nc3ccc(OC)c(S(=O)(=O)NC)c3)ncn2)c(OC)cc1N(C)CCN(C)C [Compound 238] | 100 to 1000 nM
10 to 100 nM | < 10 nM | > 1000 nM | C=CC(=O)Nc1cc(Nc2cc(Nc3cc(OC)c(Cl)cc3Cl)ncn2)c(OC)cc1N1CCN(C)CC1 [Compound 239, N-(5-(6-(2,4-dichloro-5-methoxyl-phenylamino)-pyrimidin-4-yl-amino)-2-(4-methyl-piperazin-1-yl)-4-methoxyl-phenyl)-acrylamide] | 10 to 100 nM
10 to 100 nM | < 10 nM | > 1000 nM | C=CC(=O)Nc1cc(Nc2cc(Nc3cc(OC)c(Cl)cc3Cl)ncn2)c(OC)cc1N1CCC(N2CCOCC2)CC1 [Compound 240, N-(5-(6-(2,4-dichloro-5-methoxyl-phenylamino)-pyrimidin-4-yl-amino)-2-(4-(morpholin-1-yl)-piperidin-1-yl)-4-methoxyl-phenyl)-acrylamide] | < 10 nM
100 to 1000 nM | 100 to 1000 nM | > 1000 nM | C=CC(=O)Nc1cc(Nc2cc(Nc3cc(OC)c(Cl)cc3Cl)ncn2)c(OC)cc1N(C)CC(=O)N1CCN(C)CC1 [Compound 241, N-(5-(6-(2,4-dichloro-5-methoxyl-phenylamino)-pyrimidin-4-yl-amino)-2-(methyl-(2-(4-methyl-piperazin-1-yl)-2-oxoethyl)-amino)-4-methoxyl-phenyl)-acrylamide] | 100 to 1000 nM
< 10 nM | < 10 nM | > 1000 nM | C=CC(=O)Nc1cc(Nc2cc(Nc3cc(OC)c(Cl)cc3Cl)ncn2)c(OC)cc1OCCN(C)C [Compound 242, N-(5-(6-(2,4-dichloro-5-methoxyl-phenylamino)-pyrimidin-4-ylamino)-2-(2-dimethylamino-ethoxyl)-4-methoxyl-phenyl)-acrylamide] | < 10 nM
10 to 100 nM | 10 to 100 nM | > 1000 nM | C=CC(=O)Nc1cc(Nc2cc(Nc3cc(OC)c(Cl)cc3Cl)ncn2)c(OC)cc1OCCN1CCOCC1 [Compound 243] | 10 to 100 nM
10 to 100 nM | 10 to 100 nM | > 1000 nM | C=CC(=O)Nc1cc(Nc2cc(Nc3cc(OC)c(Cl)cc3Cl)ncn2)c(OC)cc1OCCN1CCCC1 [Compound 244, N-(5-(6-(2,4-dichloro-5-methoxyl-phenylamino)-pyrimidin-4-yl-amino)-2-(2-(pyrrolidin-1-yl)-ethoxyl)-4-methoxyl-phenyl)-acrylamide] | 10 to 100 nM
10 to 100 nM | 10 to 100 nM | > 1000 nM | C=CC(=O)Nc1cc(Nc2cc(Nc3cc(OC)c(Cl)cc3Cl)ncn2)c(OC)cc1OCCCN1CCCC1 [Compound 245] | 10 to 100 nM
10 to 100 nM | 10 to 100 nM | > 1000 nM | C=CC(=O)Nc1cc(Nc2cc(Nc3cc(OC)c(Cl)cc3Cl)ncn2)c(OC)cc1OCCN1CCCCC1 [Compound 246] | 10 to 100 nM
10 to 100 nM | < 10 nM | > 1000 nM | C=CC(=O)Nc1cc(Nc2cc(Nc3cc(OC)c(Cl)cc3Cl)ncn2)c(OC)cc1OCCN1CCN(C)CC1 [Compound 247, N-(5-(6-(2,4-dichloro-5-methoxyl-phenylamino)-pyrimidin-4-yl-amino)-2-(2-(4-methyl-piperazin-1-yl)-ethoxyl)-4-methoxyl-phenyl)-acrylamide] | < 10 nM
10 to 100 nM | < 10 nM | > 1000 nM | C=CC(=O)Nc1cc(Nc2cc(Nc3cc(OC)c(Cl)cc3Cl)ncn2)c(OC)cc1OCCCN1CCN(C)CC1 [Compound 248] | < 10 nM
10 to 100 nM | < 10 nM | > 1000 nM | C=CC(=O)Nc1cc(Nc2cc(N(C)c3cc(OC)c(Cl)cc3Cl)ncn2)c(OC)cc1N(C)CCN(C)C [Compound 249, N-(5-(6-((2,4-dichloro-5-methoxyl-phenyl)-methyl-amino)-pyrimidin-4-ylamino)-2-((2-dimethylamino-ethyl)-methyl-amino)-4-methoxyl-phenyl)-acrylamide] | < 10 nM
< 10 nM | < 10 nM | > 1000 nM | C#Cc1cc(Nc2cc(Nc3cc(NC(=O)C=C)c(N(C)CCN(C)C)cc3OC)ncn2)ccc1OC [Compound 251, N-(5-(6-(3-acetenyl-4-methoxyl-phenylamino)-pyrimidin-4-yl-amino)-2-((2-dimethylamino-ethyl)-methyl-amino)-4-methoxyl-phenyl)-acrylamide] | < 10 nM
10 to 100 nM | 10 to 100 nM | > 1000 nM | C=CC(=O)Nc1cc(Nc2cc(Nc3ccc(OCC4(C)COC4)c(Cl)c3)ncn2)c(OC)cc1N(C)CCN(C)C [Compound 252, N-(5-(6-(3-chloro-4-(3-methyl-oxetan-3-yl-methoxyl)-phenylamino)-pyrimidin-4-yl-amino)-2-((2-dimethylamino-ethyl)-methyl-amino)-4-methoxyl-phenyl)-acrylamide] | 10 to 100 nM
10 to 100 nM | 10 to 100 nM | > 1000 nM | C=CC(=O)Nc1cc(Nc2cc(Nc3ccc(O)c(Cl)c3)ncn2)c(OC)cc1N(C)CCN(C)C [Compound 253, N-(5-(6-(3-chloro-4-hydroxylphenylamino)-pyrimidin-4-ylamino)-2-((2-dimethylamino-ethyl)-methyl-amino)-4-methoxyl-phenyl)-acrylamide] | 10 to 100 nM
10 to 100 nM | 10 to 100 nM | > 1000 nM | C=CC(=O)Nc1cc(Nc2cc(Nc3ccc(OCC4CCCO4)c(Cl)c3)ncn2)c(OC)cc1N(C)CCN(C)C (centres unmarked) [Compound 254, N-(5-(6-(3-chloro-4-(tetrahydrofuran-2-ylmethoxy)-phenylamino)-pyrimidin-4-ylamino)-2-((2-dimethylamino-ethyl)-methyl-amino)-4-methoxyl-phenyl)-acrylamide] | 10 to 100 nM
10 to 100 nM | 10 to 100 nM | > 1000 nM | C=CC(=O)Nc1cc(Nc2cc(Nc3ccc(OC)c(C#N)c3)ncn2)c(OC)cc1N(C)CCN(C)C [Compound 255, N-(5-(6-(3-cyano-4-methoxyphenylamino)-pyrimidin-4-yl-amino)-2-((2-dimethylamino-ethyl)-methyl-amino)-4-methoxyl-phenyl)-acrylamide] | 10 to 100 nM
10 to 100 nM | 10 to 100 nM | > 1000 nM | C=CC(=O)Nc1cc(Nc2cc(Nc3ccc(OC)c(C(C)=O)c3)ncn2)c(OC)cc1N(C)CCN(C)C [Compound 256, N-(5-(6-(3-acetyl-4-methoxyphenylamino)-pyrimidin-4-yl-amino)-2-((2-dimethylamino-ethyl)-methyl-amino)-4-methoxyl-phenyl)-acrylamide] | 10 to 100 nM

SMILES | GI50 [1] | GI50 [2] | GI50 [4] | GI50 [3]
C=CC(=O)Nc1cc(Nc2cc(Nc3ccc(OC(C)(C)C)c(Cl)c3)ncn2)c(OC)cc1N(C)CCN(C)C [Compound 250, N-(5-(6-(3-chloro-4-tert-butoxy-phenylamino)-pyrimidin-4-yl-amino)-2-((2-dimethylamino-ethyl)-methyl-amino)-4-methoxyl-phenyl)-acrylamide] | 10 to 100 nM | < 10 nM | > 1000 nM | < 10 nM
